{"source": "patent US7922709B2", "about": "“Enhanced delivery of naked DNA to skin by non-invasive in vivo electroporation” (priority 1998, dated 2011)", "origin": "cited, not measured here", "data": [{"substance": "bleomycin", "values": [{"measurement": "log P (partition coefficient between octanol and water)", "value": "very negative"}]}]}
